Assay [1] concerns HCMV. The assay is described as follows: IE1 immunofluorescence of HCMV infected HEL cells. The format is cell-based, Human cytomegalovirus. The following applies: HEL; antibody 1 h or AG1295 15 min before HCMV; 1 h at 37 C plus additional 6 h. The protocol: HEL cells were transfected with PDGFRα siRNA (smart pool, Dharmacon) or non-targeting control siRNA (Dharmacon) for 48-60 hours when maximum protein knockdown is achieved (panels a and b. Also see FIG. 3d). Cells were then infected with Towne, AD169, TR, or CMV-GFP strains of HCMV for 1 hour, washed and returned to 37° C. in complete growth media. Supernatants obtained from these cultures were used in subsequent assays measuring production of infectious virus as described below. […] Cultures infected with supernatants from GFP-CMV treated cells were monitored daily under the fluorescence microscope. Over 40% of the control siRNA treated cells expressed CMV-GFP 1 day post infection (c, 1 dpi) and this number increased to 100% by day 6 (c, 6 dpi). Note the appearance of “plaques”-like groups of cells in control siRNA transfected cells (c, 3 and 6 dpi). […]
Measurements of Infectious Virus Production. […] A duplicate set of cultures was analyzed by immunofluorescence at 12 hours post infection (hpi) to assess percent of IE1 positive cells, as a measure of “primary infection”. […] 12 hpi cells were stained for IE1 and IE1 positive cells were counted amongst a total of 100 cells/low magnification microscopic field, 4 fields/condition. […] Where indicated, CMV-GFP infected cells were monitored daily under fluorescence microscope. […]

In another assay the test system is PI3-K/Akt signaling. The format is cell-based, human.
The test system of assay [2] is HCMV. In words: HCMV pp65 western blot in HEL cells. The class given is cell-based, Human cytomegalovirus. The following applies: antibody 10 ng/ml 30 min or AG 1295 20 pM, Towne HCMV 10 min at 37 C. The protocol:
HEL cells were transfected with siRNA against the PI3K p110α catalytic subunit (a mixture of 4 RNAi oligos, “smart pool” from Dharmacon) or non-targeting, control siRNA (Dharmacon) for 48 h prior to infection with HCMV (MOI of 1) for 1 hour. Cells were washed and cultured for 2 h-6 days. a. […] The mean number of IE1 positive cells is reduced by ˜50% in the PI3 Kp110α knockdown cultures—panel c**, p<0.01. PI3K p110α knock down is also significant (b, left panels, red fluorescence). However, unlike cells that lack a functional PDGFRα, PI3K p110α knock down cells are capable of producing infectious virus as shown by IE1 staining of the secondary infected cultures (panel d). A 10% decrease in infectious virus production in the cells treated with p110α siRNA is insignificant*, bars represent SD, […], panel c. Experiments were repeated twice, all conditions were assayed in triplicate. Similar results were obtained with both Towne-infected cultures (illustrated in this figure) and CMV-GFP.
Upper panel: HEL cells pretreated with anti-human PDGFRα antibody (10 ng/ml, for 30 min, clone AF-307-NA from R&D; lanes 1 and 4) or with AG 1295 (lane 3, […], from Calbiochem) were stimulated with Towne HCMV (lanes 2-4) or Mock infected (lane 1) for 10 min at 37 C. […]
Western Blot, Immunoprecipitation, and Immunofluorescence analyses. […] Cell lysates were analyzed by SDS-PAGE. […]
A general note: A western blot detects proteins with antibodies after separation by electrophoresis.

Assay [3] deals with HCMV. In words: HCMV IE1 / viral gene expression, western blot of infected cells. The format is cell-based, Human cytomegalovirus. The following applies: for HCMV IE1 gene expression: IMC-3G3 10 μg/ml 12 h or Gleevec 100 nM 1 h pre-treatment, western blot. How it is done:
(A) pp65 immunofluorescence after HCMV treatment (1 h, 4° C.) followed by shifting to 37° C. for indicated times. Rows represent (top to bottom): HEL, PDGFRα null fibroblasts, parental fibroblasts, null fibroblasts overexpressing hPDGFRα, HEL transfected with control, or PDGFRα siRNA. Nuclei were stained with DAPI. (B) Average±S.D. pp65 positive/100 cells counted in triplicate from (A). (C) Mock or HCMV infected cells were analyzed by western blotting with the indicated antibodies. Lanes 1-4 indicate HEL, 325S, PDGFRα null and PDGFRα null over-expressing hPDGFRα, respectively. (D) HEL transfected with control or PDGFRα siRNA were mock (lanes 1) or HCMV-treated (lanes 2) and subjected to western blots with indicated antibodies. (E) Western blot of HEL and U87 lysates after infection with mock (lanes 1), HCMV (lanes 2), or HCMV pretreated with IMC-3G3 (10 μg/ml, 12 h, lanes 3) or Gleevec (100 nM, 1 h, lanes 4). (F) PDGFRα siRNA treated cells infected with indicated HCMV strains and immunostained for IE1 12 hpi (primary infection). 6 dpi, supernatants were used to infect naïve HEL cells, followed by IE1 immunostaining and quantification (secondary infection). Average (n=6) values±S.D. are shown.
HUVEC cells were pre-treated with IMC-3G3 (10 μg/ml, Imclone, 12 h), or Gleevec (100 nM, 1 h) prior to HCMV or mock infection. 12 hours post-infection, cell lysates were analyzed by western blot for the presence of IE1 gene product. […] The same blot was stripped and re-probed for actin (lower panel). Lane designation is 1—Mock, 2—HCMV, 3—IMC-3G3+HCMV, 4—Gleevec+HCMV.
Upper panel: HEL cells pretreated with anti-human PDGFRα antibody (10 ng/ml, for 30 min, clone AF-307-NA from R&D; lanes 1 and 3) or with AG 1295 (lane 4, […], from Calbiochem) were stimulated with Towne HCMV (lanes 2 through 4) or Mock infected (lane 1) for 10 min at 37 C. Cells were washed and further incubated for 2 h at 37 C (to allow expression of IE1 gene product). Afterwards, cells were harvested in RIPA buffer and processed for western blotting as described.
Western Blot, Immunoprecipitation, and Immunofluorescence analyses. For stimulation experiments, cells were serum-starved for 24 h, followed by stimulation with HCMV (MOI of 0.5), PDGF-AA (5-10 ng/ml, from R&D Systems), or mock, for 10 minutes. In some cases, cells were pre-treated with IMC-3G3 (ImClone Inc.) at 10 µg/ml (2 or 12 h) or Gleevec® (100 nM, 1 h) prior to HCMV exposure. Cell lysates were analyzed by SDS-PAGE. Antibodies used were as follows: polyclonal anti-PDGFRα ( 1/500), phosphor-Tyrosine clone 4G10 ( 1/1000), and monoclonal anti-p85 PI3-K ( 1/1000), (Upstate Biotechnology), anti HCMV IE1 MAB810 (Chemicon; 1/1000), anti HCMV pp65 (Novocastra, 1/1000), anti-phosphor-PDGFRα ( 1/500, pTyr 754), anti-phosphor-Akt (Ser 473, 1/1000) and total Akt ( 1/1000; all from Cell Signaling). Anti-actin polyclonal control antibody was used ( 1/500, Sigma). Immunoprecipitations were performed using protein G (Pierce) according to manufacturer's instructions. For immunofluorescence, monoclonal HCMV pp65 and phosphor-PDGFRα (p-Tyr 754, Santa Cruz Biotechnology) were used, overnight at 4° C., followed by 1 hour incubation with secondary antibodies conjugated to Alexa-488, or Alexa 568 ( 1/5,000, Molecular Probes). Nuclei were counterstained with DAPI. Co-immunoprecipitation experiments were performed using full length soluble purified recombinant gB (gB 680, from Don Diamond, City of Hope, Calif.) and detergent soluble extract of HEL cells generated in lysis buffer (1% NP-40, 75 mM NaCl and 50 mM Tris-HCl). 500 μg of protein from total cell extract was incubated with 25 μg of gB 680 in lysis buffer in the presence of an anti-gB (Virusys, Inc) or anti-PDGFRα (R&D) antibody overnight at 4° C. Immune complexes were recovered with protein A-Sepharose beads (2 hr incubation), denatured and separated on SDS-PAGE for western blot with anti-gB (Virusys, Inc) or anti-PDGFRα (Cell Signaling Technology) antibodies.

Assay [4] relates to HCMV. The assay is described as follows: Viral attachment and internalization assay (pp65 immunofluorescence). The format is cell-based, Human cytomegalovirus. The protocol:
(A) HEL cells were pretreated with PBS (20 min 4° C.), IMC-3G3 (2 h, 37° C., 10 μg/ml), or PDGF-AA (20 min, 4° C., 10 ng/ml) prior to infection with HCMV (MOI of 1, 4° C., 1 h). Cells were returned to 37° C. for 30 minutes, and processed for pp65^HCMV and PDGFRα double immunofluorescence. […] All conditions were assayed in triplicate cultures. One hundred cells in 4 low magnification fields were counted. Bars represent SD.
Viral Attachment and Internalization Assays. Mouse fibroblasts and HEL cells (72 hours following siRNA transfections) were incubated with HCMV (MOI of 0.5) or mock treated for 1 hour at 4° C., after which cells were returned to 37° C. for 15, 30, or 60 min. Cells were fixed using methanol (20 min) and processed for pp65 immunofluorescence. Four low power fields were counted for each condition and pp65 positive were recorded for each 100 cells. Internalization assays were repeated twice.

The mark [5] stands for this setting: human epithelial, endothelial, and fibroblast cells.

“Also recorded” adds a separate entry of the source.

Procedure for PI3-K/Akt signaling: (A) HEL cells stimulated with HCMV or PDGF-AA were subjected to immunoprecipitation and western blot analyses with indicated antibodies. (B) Phospho-PDGFRα ELISA of cells+/−pretreatment with IMC-3G3 (10 μg/ml, 2 h) followed by HCMV (MOI=1) or PDGF (10 ng/ml) for 10 min. Mean values (n=6)±S.D are shown. (C) Western blot of HEL mock, HCMV, or PDGF-AA stimulated (10 min), +/−IMC-3G3 (2 μg/ml) or Gleevec® (Imatinib) (100 nM). The same membrane was used for p-Akt^Ser 473 and Akt.
HEL cells pretreated with blocking reagents (as indicated; 30 min, 37 C) were stimulated for 10 min with HCMV, PDGF-AA (5 ng/ml), or mock-treated. Cell lysates were collected in RIPA buffer (supplemented with protease and phosphatase inhibitors) and subjected to Western blot analysis.
For stimulation experiments, cells were serum-starved for 24 h, followed by stimulation with HCMV (MOI of 0.5), PDGF-AA (5-10 ng/ml, from R&D Systems), or mock, for 10 minutes. In some cases, cells were pre-treated with IMC-3G3 (ImClone Inc.) at 10 g/ml (2 or 12 h) or Gleevec® (100 nM, 1 h) prior to HCMV exposure. Cell lysates were analyzed by SDS-PAGE. Antibodies used were as follows: polyclonal anti-PDGFRα ( 1/500), phosphor-Tyrosine clone 4G10 ( 1/1000), and monoclonal anti-p85 PI3-K ( 1/1000), (Upstate Biotechnology), anti HCMV IE1 MAB810 (Chemicon; 1/1000), anti HCMV pp65 (Novocastra, 1/1000), anti-phosphor-PDGFRα ( 1/500, pTyr 754), anti-phosphor-Akt (Ser 473, 1/1000) and total Akt ( 1/1000; all from Cell Signaling). Anti-actin polyclonal control antibody was used ( 1/500, Sigma). Immunoprecipitations were performed using protein G (Pierce) according to manufacturer's instructions.

With `Cc1cc2ncc(-c3ccccc3)nc2cc1C` [AG1295, reference compound], in the assay with HCMV [1], the IE1 levels entry is “significant decrease”. Besides, the “p-Akt levels induced by either PDGF or HCMV” value with PI3-K/Akt signaling (HEL pretreated with blocking reagents 30 min, 37 C, stimulated 10 min with HCMV or PDGF-AA 5 ng/ml) is on record as “decreased”. The “amount of pp65 (anti-pp65 blot)” value in the assay with HCMV [2] is on record as “decrease”.
As for `Cc1ccc(NC(=O)c2ccc(CN3CCN(C)CC3)cc2)cc1Nc1nccc(-c2cccnc2)n1` [Gleevec, 4-[(4-methylpiperazin-1-yl)methyl]-N-[4-methyl-3-[(4-pyridin-3-ylpyrimidin-2-yl)amino]-phenyl]-benzamide, reference compound], the “HCMV IE1 gene expression” value in the assay on HCMV [3] (HEL cells) and in the assay on HCMV [3] (U87 glioma cells) was “completely inhibited” in each case. The “HCMV IE1 expression” value in the assay with HCMV [3] (HUVEC, pre-treated with IMC-3G3 10 μg/ml 12 h or Gleevec 100 nM 1 h, western blot 12 hours post-infection) is “completely inhibited”. In addition, in the assay with HCMV [3] (setting [5]), the HCMV gene expression result is recorded as “completely inhibited”. Besides, the “Akt phosphorylation induced by either HCMV or PDGF-AA” value in the assay on PI3-K/Akt signaling (HEL, 10 min stimulation, IMC-3G3 2 μg/ml or Gleevec 100 nM, p-Akt Ser 473) was “abolished”. In the assay with HCMV [4] (setting [5]), the HCMV viral internalization entry is “completely inhibited”.
Turning to “PDGF-AA: the authentic (genuine) PDGFRα ligand, from R&D Systems [reference compound]”, in the assay with HCMV [4] (HEL cells harboring endogenous PDGFRα, pretreatment with PDGF-AA), the HCMV entry entry is “significantly decreased; also recorded: competitively inhibited”. In addition, the “inhibition of HCMV entry (pp65 positive cells)” value in the assay with HCMV [4] (HEL cells, IMC-3G3 2 h, 37° C., 10 μg/ml, PDGF-AA 20 min, 4° C., 10 ng/ml, HCMV MOI of 1, 30 min at 37° C.) is on record as roughly 30%.

The values are drawn from patent publication US9340788B2 (priority 2007, dated 2016).
